Columns and labels:
Type in all cases: cell-based, human
[1] = system: PBMC from mite-allergic patient; assay: primary T cell (PBMC) proliferation, mite-allergic patient, tritiated thymidine; details: medium 1071 ± 30
In short: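 Ficoll-purified PBMC (5×10^4/well, triplicate) from one mite-allergic donor cultured 7 days at 37 °C with graded concentrations of purified Der p I, Der p II or their peptides in RPMI-1640 plus 5% human AB serum. 1 μCi ^3H-thymidine added for 16 h; CPM counted, stimulation index = antigen CPM/medium-only CPM.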

[2] = system: T cell lines primed in vitro with Der p II; assay: T cell proliferation with fine map and modified Group II peptides (Example XIV); details: for positive T cell responses, modified peptides: 21 T cell lines, Der p II primed, FIG. 32a; for T cell response, Group II peptides: FIGS. 32a-b
In short: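 Bulk T cell lines primed with 30 μg/ml native Der p I or Der p II for 5-6 days, rested with IL-2/IL-4, then restimulated 3 days with peptides plus irradiated autologous EBV-B cells or PBMs. Proliferation by 16-20 h [3H]thymidine uptake; stimulation index = peptide CPM / medium CPM, averaged over responding patients.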

[3] = system: T cell lines primed in vitro to Der p II; assay: secondary proliferation of Der p II-primed T cell lines (Examples VIII, X, XI); details: Der p II T-cell map and analogs
In short: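 PBMC from house dust mite-allergic patients primed in vitro with native or recombinant Der p II at 20 μg/ml (or recombinant at 3 μg/ml), with x-irradiated (3500 Rads) autologous PBMC as antigen-presenting cells. Lines then challenged with Der p II-derived peptides; proliferation expressed as S.I., ranked sum scoring top three responses 3, 2, 1.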

Substance	CPM ± S.D. ([1]; 10 μg/ml)	CPM ± S.D. ([1]; 30 μg/ml)	CPM ± S.D. ([1]; 100 μg/ml)	positive T cell responses, modified peptides [2]	T cell response, Group II peptides [2]	T-cell reactivity (DPII-22 series development) [3]
DP I-1: Der p I peptide, amino acid residues 1-20 (TNACSINGNAPAEIDLRQMR)	1099 ± 48 CPM	3527 ± 73 CPM	2746 ± 81 CPM	–	–	–
DP I-3: Der p I peptide (TVTPIRMQGGCGSCWAFSGVAATESAYLA)	2608 ± 52 CPM	1561 ± 13 CPM	5252 ± 67 CPM	–	–	–
DP II-20.9: modified Der p II peptide; unique peptide (DQVDVKDCANHEIKKVLVPGCHGSE)	–	–	–	all 21 T cell lines responded positively	positive T cell studies	–
DP II-22.14: DKELEAVFEANQNTKTAKAE; unique peptide	–	–	–	all 21 T cell lines responded positively	positive T cell studies	almost the same T-cell reactivity as the "parent" peptide
DP II-22: QLEAVFEANQNTKTAKIEIKASIDGLEV	–	–	–	–	positive T cell studies	exhibits most of the reactivity found in the individual peptides

Source: patent US5968526A, “T cell epitopes of the major allergens from Dermatophagoides (house dust mite)” (Immulogic Pharamaceutical Corporation, priority 1995, dated 1999)
